SMILES	melting point
CC(C)(C)C(=O)CNC(=O)c1nn(-c2ccc(F)cc2F)c2c1C1CCC2C1 (stereo unspecified)	42 to 43 °C
Cc1ncc([N+](=O)[O-])n1CCN(CCCCN(CCn1c([N+](=O)[O-])cnc1C)CCn1c([N+](=O)[O-])cnc1C)CCn1c([N+](=O)[O-])cnc1C	194 to 196 °C
CCOCc1nc2c(N)nc(C)c(C)c2n1CCCC(N)=O	199 to 200 °C
CCOC(=O)c1ccc2c(c1)C(=O)NC(C(Cl)(Cl)Cl)N2 (stereo unspecified)	243 to 244 °C
COc1ccc(-c2nnn(-c3ccc(C(F)(F)F)cc3Cl)c2N)cc1	130 to 131 °C
CCCCc1nc2c(N)nc3cc(C)ccc3c2o1	187 to 188 °C
Cc1ccc(CCc2cc(Br)c3nc(N)sc3c2)nc1	216 to 218 °C
Cc1cccc2c1N(CC(=O)c1cccc([N+](=O)[O-])c1)C(=O)C(NC(=O)Nc1cccc(-c3nnn[nH]3)c1)N=C2c1ccccc1F (stereo unspecified)	194 to 198 °C
CCn1c(Cl)nc2cc(C(F)(F)F)c(Cl)c(N)c21	134 to 142 °C
CC(=O)n1ncc2c(OCC3CO3)cc(C)cc21 (stereo unspecified)	105 to 107 °C
CCCc1cccc(-c2nc(C)cc(Cl)n2)n1	77.1 °C
Clc1cccc(CSc2ccncc2)c1	222 to 224 °C
CC(=O)c1csc2ccc(F)cc12	90 to 92 °C
CCCn1c(=O)c2c(ncn2CCCCC(C)=O)n(C)c1=O	76 to 78 °C
O=C(Nc1ccc(OC(F)(F)F)cc1)NC1CCN(C(=O)C(F)(F)F)CC1	150 to 154 °C
N#CC1=C(c2ccsc2)Nc2n[nH]cc2C1c1cccc2nonc12 (stereo unspecified)	242 °C
Fc1cc2c(Nc3ccc(F)c(Br)c3)ncnc2cn1	269 to 270 °C
COc1ccc(C(O)c2ccc3cc(OC)ccc3c2)c(F)c1 (stereo unspecified)	68 to 69 °C
OCc1cnoc1-c1ccc(Br)cc1	104 to 105 °C
COc1ccc(C(=O)Nc2c(Cl)cncc2Cl)c2c1OCCCCO2	115 to 117 °C
CC1(C)OCC(C(CS(=O)(=O)c2ccc(-c3ccc(C(F)(F)F)cc3)cc2)N(O)C=O)O1 (stereo unspecified)	204 to 205 °C
O=C(O)c1ccn2c1C(C(=O)O)CCC2 (stereo unspecified)	236 to 237 °C
Oc1nsc(SCc2ccc(Cl)cc2)n1	138 °C
CC1CC(=O)NN=C1c1ccc(N2CCNCC2)c(F)c1 (stereo unspecified)	172 to 174 °C
CN(C)C=NS(=O)(=O)c1cc2ccncc2s1	169 to 171 °C
CC(=O)OCc1cccc(N)c1I	80 to 81 °C
Cc1nc(C=O)c2n1-c1ccc(Cl)cc1C(c1ccccc1F)=NC2	190 to 192 °C

SMILES	melting point
COc1cccc2c1nc(C(F)F)n2-c1nc(NC2CCN(C(=O)OC(C)(C)C)CC2)c([N+](=O)[O-])c(N2CCOCC2)n1	229 to 231 °C
CCOC(=O)c1cn(-c2cc(OC)c(F)cc2F)c2c(C)c(N)c(F)cc2c1=O	232 to 235 °C
CCC(CC)(OC)c1ccc(Cl)c2nc3n(c12)CCCN3c1ccc(Cl)cc1Cl	124 to 125 °C
COc1cc2[nH]c3cc(OC)c(OC)cc3c2cc1OC	232 to 233 °C
Cc1c(F)c(F)c(C)c(C(=O)O)c1F	118 to 119 °C
COc1ccc(C(=O)C(C)(C)Br)c(Cl)c1Cl	72 to 73 °C
CC1CCN(c2nc(Nc3cc(C4CC4)n[nH]3)c3ccccc3n2)CC1	190 °C
CC1(C)c2cc(I)ccc2-c2ccc(I)cc21	195 °C
CC1Cc2cc(F)ccc2C1=Cc1ccc(S(C)(=O)=O)cc1 (stereo unspecified)	177 °C
Nc1nnc2c3c(c(N4CCOCC4)nn12)CCCC3	260 to 262 °C
CC(C)Sc1nc(-n2ccnc2)c(I)c(C(F)(F)F)n1	118 to 120 °C
CC(C)(C)OC(=O)N1CCC[C@@H]1Cc1cccc2ccc(N)cc12	157 to 158 °C
Cc1ccc2c(=O)c(O)cn(C)c2c1	268 °C
Cc1c(C(F)(F)F)cc(Cl)c(-n2cnc(C(F)(F)F)cc2=O)c1Cl	204 to 206 °C
N#Cc1cc(C(F)(F)F)[nH]c1-c1ccsc1Br	170 °C
CNC(=O)c1ccc(C=C2CC3CCC(C2)N3)cc1	164 to 166 °C
CN=C1SCC(O)(c2ccc(Cl)c(S(=O)(=O)N(C)C)c2)N1C (stereo unspecified)	157 to 158 °C
CC(C)(C)c1cc(SC2CC(=O)N(C3CCCCC3)C2=O)cc(C(C)(C)C)c1O (stereo unspecified)	94 to 98 °C
CC(C)c1cccc(C(C)C)c1-n1nnn(C(C)C)c1=S	109 to 111 °C
Cc1ccccc1C(=O)NCN1CCN(c2ncccc2C#N)CC1	124 to 127 °C
CCC(CC)(Cc1ccc(Cl)cc1)C(O)c1cccnc1 (stereo unspecified)	128 to 129 °C
COCCOc1ccc(N=Nc2cc(S(=O)(=O)N3CCCC3)c(O)c3cccc(NS(C)(=O)=O)c23)cc1S(=O)(=O)Cl	184 to 187 °C
C=CCCCCNC(=O)c1cnc(OCC(O)CNC(C)(C)C)s1 (stereo unspecified)	80 to 81 °C
O=c1[nH]c2cc(F)c(F)cc2c(=O)n1CCCN1CC=C(c2ccc(Cl)cc2)CC1	204 to 205 °C
Nc1ncnc2ncn(COCCCl)c12	184 to 186 °C
Oc1cccc(COC=C2C3CC4CC(C3)CC2C4)c1	133 to 134 °C

Now from value to compound:

melting point	SMILES
> 300 °C	CC(C)(C)c1cnc(C(=O)Nc2cc(-c3cc(Nc4ccc(-c5ccncc5)nn4)c(=O)[nH]n3)ccc2F)cn1
186 to 188 °C	CS(=O)(=O)c1ccc(-c2cnn(CC(=O)c3ccc(Cl)cc3)c(=O)c2-c2ccc(F)cc2)cc1
63 to 65 °C	CCCCCCCC1=CC(=O)N(c2ccccc2)C1=CBr
86 to 88 °C	O=C(O)COCCCCSc1cnc(-c2ccccc2)c(-c2ccccc2)n1
208 to 210 °C	COc1ccc(C(=O)Nc2ccccc2)cc1NS(=O)(=O)c1cccc([N+](=O)[O-])c1
60 to 61 °C	O=[N+]([O-])c1cc(CCl)ccc1OCc1ccccc1
114 to 116 °C	COC(=O)C(Cc1ccc([N+](=O)[O-])c(OCc2ccccc2)c1)(NC(=O)OC(C)(C)C)C(=O)OC
160 to 162 °C	O=C(C[N+](=O)[O-])c1ccc(-c2ccc(-c3ccc4ccccc4n3)cc2)cc1
77 to 79 °C	O=S(=O)(c1ccc(Cl)cc1)C(CCCCCCO)c1cc(F)ccc1F (stereo unspecified)
157 to 160 °C	O=c1c2ccccc2c2cnn(-c3ccccc3)c2n1CCCl
91 to 93 °C	Cc1ccc(S(=O)(=O)OCCC2COc3ccccc3C2)cc1 (stereo unspecified)
130 °C	CC(CN(C)C)N1c2ccccc2Sc2ccc(C(=O)NCc3ccccc3F)cc21 (racemic)
150 to 156 °C	CC1=NC(NC(=O)Nc2cccc(C)c2)C(=O)N(CC(=O)C2CCCC2)c2c(C)cccc21 (stereo unspecified)
168 to 170 °C	CCCc1nc(C)c(C(=O)O)n1Cc1ccc2oc(-c3ccccc3NS(=O)(=O)C(F)(F)F)c(Br)c2c1
128 to 132 °C	COc1cc(NC(C)=O)c2c3c(c4ccccc4nc13)C=CN2
206 to 207 °C	CSc1ccc(-n2c(-c3ccc(Cl)cc3)nc(SC)c(C#N)c2=O)cc1
143 to 144 °C	O=C(CCCCOc1ccc(C2=NCCO2)cc1)c1ccc(Cl)s1
120 to 122 °C	COC(=O)CNc1ccc(OC(=O)CC2CCN(c3ccncc3)CC2)cc1
122 to 123 °C	CCCCn1ccc(-c2ccc(C(=O)N3Cc4cccn4Cc4ccccc43)cc2)n1
132 to 133 °C	CC(C)(C)OC(=O)N1CCc2c(n(CCOc3ccccc3)c3cc(Cl)cc(Cl)c23)CC1
108 to 110 °C	Cc1cc(SCCc2ccc3sc(-c4ccc(C(F)(F)F)cc4)nc3c2)ccc1CCC(=O)O
155 °C	CC1C(=O)N(c2ccc(OCc3ccccc3)cc2)C(=S)N1c1ccccc1 (stereo unspecified)

melting point	SMILES
228 to 231 °C	COc1cc(Nc2nc3c(s2)CCCC3c2ccccc2)ccc1-c1nc(C)no1 (stereo unspecified)
84 to 85 °C	CCOCCNC(=O)c1ccc(CN2C(=O)C3(COc4cc5c(cc43)CCO5)c3ccccc32)cc1 (stereo unspecified)
126 to 128 °C	COC(=O)c1ccc(OCCC2CC(=O)N(c3ccc(Cl)cc3)C2)cc1 (stereo unspecified)
108 to 109 °C	COc1cccc(CC(=O)O)c1OCCCc1cc(OC(C)C)nn1Cc1ccc(Cl)cc1C
110 to 112 °C	CCOC(=O)c1c(-c2cccc([N+](=O)[O-])c2)cc(-c2ccccc2)nc1C
129 to 130 °C	Cc1c(NC(=O)c2ccc(-c3ccccc3)c(F)c2)ccc2cc(CN3CCCCCC3)cnc12
246 to 248 °C	Cc1cc(C(=O)N2Cc3cccn3Cc3ccccc32)ccc1[N+](=O)[O-]
226 °C	Cn1cncc1C(O)(c1ccc(Cl)cc1)c1cc2nnn3c(=O)cc(-c4cccc(Cl)c4)c(c1)c23 (stereo unspecified)
173 to 174 °C	Cn1c(-c2ccc(N3CCOCC3)cc2)cnc1[C@H](Cc1ccccn1)N(C=O)c1cc2cc(Br)ccc2o1
188 to 190 °C	Cc1ccc2[nH]c3c(cc(-c4ccccc4Nc4ccccc4)c(=O)n3C)c2c1
156 to 158 °C	COC(=O)C1=C(C)NC(C)C(C(=O)OC)=C1c1cc(Cl)ccc1COCc1ccccc1 (stereo unspecified)
191 to 194 °C	COc1ccccc1Oc1c(NS(=O)(=O)c2ccc(C(C)(C)C)cc2)nc(-c2ncccn2)nc1OCCOc1ccc(C(C)O)cc1 (stereo unspecified)
214 °C	Cc1cccc(NC(=O)NCC(=O)N(CC(=O)NC(C)(C)C)c2ccccc2)c1
114 to 116 °C	NC(=O)N(O)Cc1ccc(Oc2ccccc2)s1
89 °C	CCCOc1ccccc1-c1nc2c(CCCc3ccccc3)cccc2c(=O)[nH]1
178 to 180 °C	CCOC(=O)C1=C(C)Nc2ncn(C(C)C)c(=O)c2C1c1ccccc1F (stereo unspecified)
169 to 171 °C	COCOc1ccccc1-c1cc(-c2cccc([N+](=O)[O-])c2)c(C#N)c(N)n1
215 to 216 °C	CSc1nc(=O)n(Cc2ccccc2)c2nc[nH]c12
123 to 124 °C	COC(=O)C(O)CCN1C(=O)c2ccccc2C1=O (stereo unspecified)
205 to 210 °C	Cn1ccnc1Sc1ccc(Nc2c(C#N)cnc3cc(/C=C/CCO)ccc23)cc1Cl
220 to 222 °C	CN(Cc1ccccc1)Cc1c(-c2ccc(NC(=O)NCCO)cc2)sc2c1c(=O)n(-c1ccccc1)c(=O)n2Cc1c(F)cccc1F

— a melting point compilation (Tetko et al.; mined from patent text by program, amines drawn as free bases though some values may be those of a salt)
